Experimental data published in BigSolDB 2.1.

With `O=C(/C=C/C=C/c1ccc2c(c1)OCO2)N1CCCCC1` the solubility (mole fraction) (in acetone, 278.15 K) was 0.00485, the solubility (mole fraction) (in acetone, 283.15 K) was 0.00589 and the solubility (mole fraction) (in acetone, 288.15 K) was 0.00706. It also gave a solubility (mole fraction) (in acetone, 293.15 K) of 0.0083, a solubility (mole fraction) (in acetone, 298.15 K) of 0.00973 and a solubility (mole fraction) (in acetone, 303.15 K) of 0.0113. It also gave a solubility (mole fraction) (in acetone, 308.15 K) of 0.0129, a solubility (mole fraction) (in acetone, 313.15 K) of 0.0146 and a solubility (mole fraction) (in acetone, 318.15 K) of 0.0166. It also gave a solubility (mole fraction) (in ethanol, 278.15 K) of 0.00413, a solubility (mole fraction) (in ethanol, 283.15 K) of 0.00503 and a solubility (mole fraction) (in ethanol, 288.15 K) of 0.00607. It also gave a solubility (mole fraction) (in ethanol, 293.15 K) of 0.00714, a solubility (mole fraction) (in ethanol, 298.15 K) of 0.00827 and a solubility (mole fraction) (in ethanol, 303.15 K) of 0.00966. For the same compound, the solubility (mole fraction) (in ethanol, 308.15 K) was 0.0111, the solubility (mole fraction) (in ethanol, 313.15 K) was 0.0126 and the solubility (mole fraction) (in ethanol, 318.15 K) was 0.0143. For the same compound, the solubility (mole fraction) (in ethyl acetate, 278.15 K) was 0.00807, the solubility (mole fraction) (in ethyl acetate, 283.15 K) was 0.0104 and the solubility (mole fraction) (in ethyl acetate, 288.15 K) was 0.0132. For the same compound, the solubility (mole fraction) (in ethyl acetate, 293.15 K) was 0.0161, the solubility (mole fraction) (in ethyl acetate, 298.15 K) was 0.0194 and the solubility (mole fraction) (in ethyl acetate, 303.15 K) was 0.0232. The solubility (mole fraction) (in ethyl acetate, 308.15 K) was 0.0274, the solubility (mole fraction) (in ethyl acetate, 313.15 K) was 0.0321 and the solubility (mole fraction) (in ethyl acetate, 318.15 K) was 0.0373.
